This passage reports IC50 and Ki results from patent US8222288B2, “Small molecule inhibitors of MDM2 and the uses thereof” (The Regents of the University of Michigan, priority 2006, dated 2012).

“And” between values parts separate entries of the source, which are not always exact repeats. Equal values may be shown once. Read-outs that look alike come from different tables or passages of the source.

In assay [1] the target is MDM2 protein (Homo sapiens, UniProt Q00987). Briefly: MDM2 binding assay (competition with F-6 probe; IC50 and calculated Ki). To be noted: F-6 [1 nM]; for IC50: MDM2 [10 nM], repeat determinations listed line by line; for Ki: value in parentheses, calculation of Ki: MDM2 [10 nM], read-out: (Ki ± SD).
Assay [2] deals with LNCaP (p53 wild-type) cells. Kind of assay: Cell growth inhibition, WST-8, 4 days, LNCaP. To be noted: single runs and mean ± SD line.
Description: (§1) To test these predictions, a cell growth assay was developed using human prostate cancer LNCaP (p53 wild-type) and PC-3 (p53 null) cell lines.
(§2) Cells were seeded in 96-well flat bottom cell culture plates at a density of 3-4×10^3 cells/well and incubated in the presence of compounds for 4 days.
For assay [3], the system named is HCT116 p53KO cells. Kind of assay: Cell growth inhibition, HCT116 p53KO. Conditions: single runs and mean ± SD line.
Description: as §2
In assay [4] the test system is PC-3 (p53 null) cells. Kind of assay: Cell growth inhibition, WST-8, 4 days, PC3. To be noted: single runs and mean ± SD line. Background: Tetrazolium assays rely on reduction of a dye to a coloured formazan, in cell work by metabolically active cells.
Description: as §1, §2
The subject of assay [5] is HCT116 (wild-type p53) colon cancer cells. Briefly: Cell growth inhibition, HCT116 p53WT. Conditions: single runs and mean ± SD line.
Description: as §2
[6] abbreviates: Homo sapiens, LNCaP, 96 h, read-out: LNCaP IC50 (μM), LNCaP p53 wild-type, 4 days, WST-8.
Setting [7] is: Homo sapiens, HCT-116, read-out: HCT116 p53KO IC50 (μM), HCT116 p53KO.
Where [8] appears, read: read-out: HCT116 p53KO IC50, HCT116 p53KO.
The mark [9] stands for this setting: Homo sapiens, 96 h, read-out: PC3 IC50 (μM), PC3 p53 null, 4 days, WST-8.
Setting [10] is: read-out: PC3 IC50, PC3 p53 null, 4 days, WST-8.
[11] abbreviates: Homo sapiens, HCT-116, read-out: HCT116 p53WT IC50 (μM), HCT116 p53WT.
Where [12] appears, read: read-out: LNCaP IC50, LNCaP p53 wild-type, 4 days, WST-8.
Setting [13] is: read-out: HCT116 p53WT IC50, HCT116 p53WT.

Chain of MDM2 protein (Q00987 whole entry, species assumed): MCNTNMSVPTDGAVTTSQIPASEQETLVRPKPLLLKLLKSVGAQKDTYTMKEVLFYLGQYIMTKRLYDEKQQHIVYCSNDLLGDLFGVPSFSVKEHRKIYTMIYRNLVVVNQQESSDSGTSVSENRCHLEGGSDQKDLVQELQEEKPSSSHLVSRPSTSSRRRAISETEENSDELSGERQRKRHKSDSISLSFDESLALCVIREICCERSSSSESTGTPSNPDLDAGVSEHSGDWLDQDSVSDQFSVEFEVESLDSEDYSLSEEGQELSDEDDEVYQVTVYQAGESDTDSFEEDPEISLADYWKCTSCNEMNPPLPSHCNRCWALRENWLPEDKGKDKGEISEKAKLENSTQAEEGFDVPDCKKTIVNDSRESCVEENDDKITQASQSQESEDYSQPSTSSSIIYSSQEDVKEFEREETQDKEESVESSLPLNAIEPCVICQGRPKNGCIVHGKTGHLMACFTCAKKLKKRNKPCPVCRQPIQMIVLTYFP

As a reminder, the IC50 is the concentration needed to halve the response being measured. On to `CC(C)(C)C[C@H]1N[C@@H](C(=O)NCCC2CCC(O)C2)[C@H](c2ccc(F)c(Cl)c2)[C@@]12C(=O)Nc1cc(Cl)c(F)cc12` (single isomer, unassigned) [MDM2-319-6, 6-CHLORO-4′-(3-CHLORO-4-FLUOROPHENYL)-2′-(2,2-DIMETHYL-PROPYL)-5-FLUORO-2-OXO-1,2-DIHYDRO-SPIRO[INDOLE-3,3′-PYRROLIDINE]-5′-CARBOXYLIC ACID [2-(3-HYDROXY-CYCLOPENTYL)-ETHYL]-AMIDE], for which the IC50 in assay [1] was 0.59 µM and 0.55 µM.

With `CC(C)(C)C[C@H]1N[C@@H](C(=O)NCC[C@H](O)CO)[C@H](c2ccc(F)c(Cl)c2)[C@@]12C(=O)Nc1cc(Cl)c(F)cc12` [MDM2-319, (2′R,3S,3″S,4′R,5′R)6-CHLORO-4′-(3-CHLORO-4-FLUORO-PHENYL)-2′-(2,2-DIMETHYL-PROPYL)-5-FLUORO-2-OXO-1,2-DIHYDRO-SPIRO[INDOLE-3,3′-PYRROLIDINE]-5′-CARBOXYLIC ACID (3,4-DIHYDROXY-BUTYL)-AMIDE], the IC50 in assay [2] (setting [6]) was 0.229 ± 0.04 µM; in assay [3] (setting [7]) it was 12.8 ± 1.29 µM.

`O=C(NCC[C@H](O)CO)[C@@H]1N[C@H](CC2CCCC2)[C@]2(C(=O)Nc3cc(Cl)c(F)cc32)[C@H]1c1ccc(F)c(Cl)c1` [MDM2-319-1, 6-CHLORO-4′-(3-CHLORO-4-FLUOROPHENYL)-2′-CYCLOPENTYLMETHYL-5-FLUORO-2-OXO-1,2-DIHYDRO-SPIRO[INDOLE-3,3′-PYRROLIDINE]-5′-CARBOXYLIC ACID (3,4-DIHYDROXY-BUTYL)-AMIDE]: the IC50 in assay [1] was 0.194 µM and 0.072 µM.

What is called Ki is a dissociation constant, usually derived from enzyme kinetics or from competition with a known ligand. In the case of `O=C(NCC[C@H](O)CO)[C@@H]1N[C@H](Cc2ccccc2)[C@]2(C(=O)Nc3cc(Cl)c(F)cc32)[C@H]1c1ccc(F)c(Cl)c1` [MDM2-319-2], the IC50 in assay [3] (setting [7]) was 22.2 µM; in assay [3] (setting [8]), 19.5 µM and 25.4 µM and 22.4 µM; in assay [1], 175 µM and > 80 µM; in assay [4] (setting [9]), 14.4 µM; in assay [4] (setting [10]) it was 19.6 µM (2×) and 17.9 µM. Besides, the Ki in assay [1] was 16.4 µM.

Take `O=C(NCC[C@H](O)CO)[C@@H]1N[C@H](C2CCCCC2)[C@]2(C(=O)Nc3cc(Cl)c(F)cc32)[C@H]1c1ccc(F)c(Cl)c1` [MDM2-319-4, 6-CHLORO-4′-(3-CHLORO-4-FLUOROPHENYL)-2′-CYCLOHEXYL-5-FLUORO-2-OXO-1,2-DIHYDRO-SPIRO[INDOLE-3,3′-PYRROLIDINE]-5′-CARBOXYLIC ACID (3,4-DIHYDROXY-BUTYL)-AMIDE]: in assay [1], the IC50 is 0.71 µM and 1.16 µM and 0.46 µM; the Ki was 0.066 µM.

On to `CC(C)(C)C[C@H]1N[C@@H](C(=O)NCCC2CCC(O)C2)[C@H](c2ccc(F)c(Cl)c2)[C@@]12C(=O)Nc1cc(Cl)c(F)cc12` (some centres unmarked) [MDM2-319-5], for which the IC50 was 0.993 µM in assay [5] (setting [11]); 0.602 µM in assay [2] (setting [6]); 10.5 µM in assay [3] (setting [7]); 0.055 µM and 0.04 µM in assay [1]; 9.47 µM in assay [4] (setting [9]).

In the case of `COC(C)(C)C[C@H]1N[C@@H](C(=O)NCC[C@H](O)CO)[C@H](c2ccc(F)c(Cl)c2)[C@@]12C(=O)Nc1cc(Cl)c(F)cc12` [MI-319-7], the IC50 is 8.22 µM in assay [5] (setting [11]), 2.17 µM in assay [2] (setting [6]), 39.3 µM in assay [1] and 39.7 µM in assay [4] (setting [9]).

In the case of `O=C(NCC[C@H](O)CO)[C@@H]1N[C@H](C2CCCC2)[C@]2(C(=O)Nc3cc(Cl)c(F)cc32)[C@H]1c1ccc(F)c(Cl)c1` [MI-319-8, 6-CHLORO-4′-(3-CHLORO-4-FLUOROPHENYL)-2′-CYCLOPENTYL-5-FLUORO-2-OXO-1,2-DIHYDRO-SPIRO[INDOLE-3,3′-PYRROLIDINE]-5′-CARBOXYLIC ACID (3,4-DIHYDROXY-BUTYL)-AMIDE], the IC50 in assay [1] was 0.34 µM and 0.53 µM.

On to `CN1CCN(C(=O)[C@@H]2N[C@H](CC(C)(C)C)[C@]3(C(=O)Nc4cc(Cl)c(F)cc43)[C@H]2c2ccc(F)c(Cl)c2)CC1` [MI-319-9], for which the IC50 in assay [2] (setting [6]) is 2.87 µM; in assay [2] (setting [12]), 2.77 µM and 1.75 µM; in assay [1], 3.58 µM.

As for `CC(C)(C)C[C@H]1N(S(=O)(=O)C(F)(F)F)[C@@H](C(=O)NCCN2CCOCC2)[C@H](c2ccc(F)c(Cl)c2)[C@@]12C(=O)Nc1cc(Cl)c(F)cc12` [MI-319-10], the IC50 in assay [5] (setting [11]) was 1.41 µM; in assay [5] (setting [13]) it was 1.95 µM and 1.09 µM and 1.48 µM; in assay [2] (setting [6]) it was 0.776 µM; in assay [2] (setting [12]), 0.828 µM and 0.449 µM and 0.68 µM; in assay [4] (setting [9]), 10.5 µM; in assay [4] (setting [10]), 10.4 µM and 8.07 µM and 9.63 µM.

As for `CC(=O)N1[C@@H](C(=O)NCC[C@H](O)CO)[C@H](c2ccc(F)c(Cl)c2)[C@@]2(C(=O)Nc3cc(Cl)c(F)cc32)[C@H]1CC(C)(C)C` [MI-319-13, 1′-ACETYL-6-CHLORO-4′-(3-CHLORO-4-FLUOROPHENYL)-2′-(2,2-DIMETHYL-PROPYL)-5-FLUORO-2-OXO-1,2-DIHYDRO-SPIRO[INDOLE-3,3′-PYRROLIDINE]-5′-CARBOXYLIC ACID (3,4-DIHYDROXY-BUTYL)-AMIDE], the IC50 was 32.6 µM in assay [3] (setting [7]); 35.1 µM and 33 µM and 33.6 µM in assay [3] (setting [8]); 5.87 µM and 5.04 µM in assay [1].

For `CC(C)(C)C[C@H]1N[C@@H](C(=O)NCC(=O)O)[C@H](c2ccc(F)c(Cl)c2)[C@@]12C(=O)Nc1cc(Cl)c(F)cc12` [MI-319-15, {[6-CHLORO-4′-(3-CHLORO-4-FLUOROPHENYL)-2′-(2,2-DIMETHYL-PROPYL)-5-FLUORO-2-OXO-1,2-DIHYDRO-SPIRO[INDOLE-3,3′-PYRROLIDINE]-5′-CARBONYL]-AMINO}-ACETIC ACID], the IC50 in assay [5] (setting [11]) is 12.1 µM; in assay [5] (setting [13]), 12.9 µM and 13.9 µM and 13 µM; in assay [2] (setting [6]) it was 4.52 µM; in assay [2] (setting [12]) it was 4.12 µM and 6.11 µM and 4.92 µM; in assay [3] (setting [7]), > 30 µM; in assay [1] it was 0.35 µM and 0.18 µM. The IC50 in assay [4] (setting [9]) is > 30 µM.

On to `CC(C)(C)C[C@H]1N[C@@H](C(=O)NCC[C@H](O)C(=O)O)[C@H](c2ccc(F)c(Cl)c2)[C@@]12C(=O)Nc1cc(Cl)c(F)cc12` [MI-319-16], for which the IC50 in assay [5] (setting [11]) and in assay [4] (setting [9]) was > 30 µM each time.

In the case of `CC(C)(C)C[C@H]1N[C@@H](C(=O)NCCn2ccnc2)[C@H](c2ccc(F)c(Cl)c2)[C@@]12C(=O)Nc1cc(Cl)c(F)cc12` [MI-319-17, 6-CHLORO-4′-(3-CHLORO-4-FLUOROPHENYL)-2′-(2,2-DIMETHYL-PROPYL)-5-FLUORO-2-OXO-1,2-DIHYDRO-SPIRO[INDOLE-3,3′-PYRROLIDINE]-5′-CARBOXYLIC ACID (2-IMIDAZOL-1-YL-ETHYL)-AMIDE], the IC50 in assay [1] is 0.39 µM and 0.49 µM.

For `CC(C)(C)C[C@H]1N[C@@H](C(=O)NCC[C@@H](O)C[C@@H](O)CC(=O)O)[C@H](c2ccc(F)c(Cl)c2)[C@@]12C(=O)Nc1cc(Cl)c(F)cc12` [MI-319-18, 7-{[6-CHLORO-4′-(3-CHLORO-4-FLUOROPHENYL)-2′-(2,2-DIMETHYL-PROPYL)-5-FLUORO-2-OXO-1,2-DIHYDRO-SPIRO[INDOLE-3,3′-PYRROLIDINE]-5′-CARBONYL]-AMINO}-3,5-DIHYDROXY-HEPTANOIC ACID], the IC50 was > 30 µM in assay [5] (setting [11]); > 30 µM in assay [2] (setting [6]); > 30 µM in assay [3] (setting [7]); 3.51 µM and 3.57 µM in assay [1]; > 30 µM in assay [4] (setting [9]).

As for `CC(C)(C)C[C@H]1N[C@@H](C(=O)NC[C@H](O)[C@H](O)CO)[C@H](c2ccc(F)c(Cl)c2)[C@@]12C(=O)Nc1cc(Cl)c(F)cc12` [MI-319-19, 6-CHLORO-4′-(3-CHLORO-4-FLUOROPHENYL)-2′-(2,2-DIMETHYL-PROPYL)-5-FLUORO-2-OXO-1,2-DIHYDRO-SPIRO[INDOLE-3,3′-PYRROLIDINE]-5′-CARBOXYLIC ACID (2,3,4-TRIHYDROXY-BUTYL)-AMIDE], the IC50 in assay [1] was 0.5 µM and 0.49 µM.

For `CC(C)(C)C[C@H]1N[C@@H](C(=O)NCCNC(=N)N)[C@H](c2ccc(F)c(Cl)c2)[C@@]12C(=O)Nc1cc(Cl)c(F)cc12` [MI-319-20, 6-CHLORO-4′-(3-CHLORO-4-FLUOROPHENYL)-2′-(2,2-DIMETHYL-PROPYL)-5-FLUORO-2-OXO-1,2-DIHYDRO-SPIRO[INDOLE-3,3′-PYRROLIDINE]-5′-CARBOXYLIC ACID (2-GUANIDINO-ETHYL)-AMIDE], the IC50 in assay [2] (setting [6]) was determined as 27.4 µM; in assay [2] (setting [12]), 31.6 µM.

With `CC(C)(C)C[C@H]1N[C@@H](C(=O)NCCc2ncc[nH]2)[C@H](c2cccc(Cl)c2)[C@@]12C(=O)Nc1cc(Cl)c(F)cc12` [MI-319-21], the concentration for half-maximal inhibition (IC50) in assay [5] (setting [11]) was found to be 4.4 µM; in assay [2] (setting [6]) it was 2.84 µM; in assay [3] (setting [7]) it was 11.8 µM; in assay [4] (setting [9]), 21.9 µM.
